The record followed here is article PMC11801715, “Activating PKC-ε induces HIV expression with improved tolerability” (PLOS Pathogens, 2025).

Data set [1] is described as follows: In vivo monkey study: tolerability, clinical pathology, histopathology. Details: species or system rhesus macaque. Particulars: male, rhesus monkey, in vivo; single IV infusion; read-out: maximum tolerated dose. As for the experimental part:
(§1) Male rhesus macaque monkeys (young adult to adult) were sourced from the Covance stock colony for conduct of in vivo studies at Covance Laboratories Inc. (Madison, Wisconsin, USA). Monkeys were administered a single dose of vehicle control (n = 3), 0.03, 0.1, 0.3, or 1 mg/kg of C-232A (n = 1) by intravenous infusion over 30 minutes using a sentinel approach. An additional 2 male monkeys were administered 0.3 mg/kg C232A after it was determined that this was the maximum tolerated dose level. Blood samples were collected through 24 hours postdose. Samples for PK (for measurement of C-232A concentration) and cytokine analysis were processed to plasma and shipped to Gilead Sciences. Activation of CD4^+ T cells was assessed by measuring CD69 expression levels in whole blood by flow cytometry (Covance Laboratories). Samples for clinical pathology were analyzed at Covance Laboratories for hematology, coagulation, and clinical chemistry panels. At unscheduled necropsy (1 mg/kg C-232A), tissues were preserved in 10% neutral-buffered formalin, embedded in paraffin, and processed to slides for staining with hematoxylin and eosin. Tissues were then evaluated independently (Experimental Pathology Laboratories, Inc).

The test system of another data set is rhesus macaques. The description is as above. Further details: species or system rhesus macaque. As for the experimental part:
as §1

The subject of a further data set is CD69 on CD4+ T cells. Briefly: CD69 expression levels in rhesus blood (flow cytometry). In kind it is in vivo, rhesus macaque. As for the experimental part: CD69 protein expression levels in whole blood were measured using flow cytometry. Samples, collected in K2EDTA tubes, were surface stained with anti-human monoclonal antibodies against markers CD3 (UCHT1), CD4 (SK3), and activation marker CD69 (FN50) for 30 minutes at RT. Red blood cells were lysed and cells were fixed (BD Lyse/Fix buffer) according to the manufacturer’s instructions. All data were acquired on an LSR II (BD Biosciences) and were analyzed using FlowJo software.
On the technique in general: Flow cytometry measures light scatter and fluorescence of single cells or particles in a stream.

As to `Cc1ccc(C#Cc2ccc3oc(CC(C)(C)C(=O)OCC4(CO)CC(=CCC(CC(C)C)CC(C)C)C(=O)O4)cc3c2)cc1` (stereo not shown) [C-232A], the MTD in data set [1] came to 0.3 mg/kg. In the data set on rhesus macaques (1 mg/kg), the circulating fibrinogen result is on record as “decreased”; the coagulation times result was “prolonged”; the histopathology entry was “hemorrhage in the lung and adrenal gland”. Moreover, the “outcome (severe clinical signs)” value in the data set on rhesus macaques (1 mg/kg, single IV infusion, 1 monkey) is reported as “euthanized 8 hours postdose”. Further, in the data set on rhesus macaques (0.03, 0.1, and 0.3 mg/kg, single IV infusion), the tolerability result is “well tolerated”. Also, in the data set with rhesus macaques (higher doses), the circulating platelet counts was < 100,000 platelets/µL and the mean platelet volume is given as above 15 fL. Further, the “expression of CD69 on CD4+ T cells” value in the data set with CD69 on CD4+ T cells (1 mg/kg, at peak) worked out at 59%. Also, the “time of peak CD69 expression postdose” value in the data set with CD69 on CD4+ T cells (rhesus monkey, in vivo) was in the range of 4 to 8 h.
